Measurements from patent US20090142369A1, “Method for preventing skin-cellular injury by using green algae extract and cosmetic composition containing green algae extract” (priority 2007, published 2009).

Test system: fibroblasts
Assay: protective effects on UV-induced cytotoxicity (fibroblast survival rates)
Assay type: cell-based, human
Procedure: Green algae extracts (20 mg/ml and 10 mg/ml), Vitamin C, and Vitamin E treated fibroblasts are taken as subjects of the present experiment. The fibroblast survival rates are analyzed after 24, 48 and 72 hours of UV exposure and the results are quantified in the histogram.

Compound	fibroblast survival rate, as % of non-UV-exposed control (Vitamin C 0.15 mM, after 24 hours of UV exposure)	fibroblast survival rate, as % of non-UV-exposed control (Vitamin C 0.15 mM, after 48 hours of UV exposure) [%]	fibroblast survival rate, as % of non-UV-exposed control (Vitamin C 0.15 mM, after 72 hours of UV exposure) [%]	fibroblast survival rate, as % of non-UV-exposed control (Vitamin E 25 μM, after 24 hours of UV exposure)	fibroblast survival rate, as % of non-UV-exposed control (Vitamin E 25 μM, after 48 hours of UV exposure) [%]	fibroblast survival rate, as % of non-UV-exposed control (Vitamin E 25 μM, after 72 hours of UV exposure) [%]
O=C1O[C@H]([C@@H](O)CO)C(O)=C1O [Vitamin C]	about 53%	~29	~22			
Vitamin E				about 49%	~27	~23
